Measured values as given in patent publication EP2759295A1, “Foam cell specific Liver X Receptor (LXR) alpha agonist, SIRT1 inhibitors as well as p300 inhibitors as pharmaceutically active agents” (Max-Planck-Gesellschaft zur Förderung der Wissenschaften …, priority 2013, dated 2014).
Where two headings read alike, the source gives them in different places.

Assays:
[1] = target: T1, LXRα ligand binding domain (LBD) (Homo sapiens, UniProt Q13133); test: dual luciferase reporter gene assay with LXRα ligand binding domain in HEK-293 cells; format: cell-based; conditions: +DMSO
T1 construct: expressed in transfected cells; host or cells: HEK-293
T1 sequence (Q13133 164-447): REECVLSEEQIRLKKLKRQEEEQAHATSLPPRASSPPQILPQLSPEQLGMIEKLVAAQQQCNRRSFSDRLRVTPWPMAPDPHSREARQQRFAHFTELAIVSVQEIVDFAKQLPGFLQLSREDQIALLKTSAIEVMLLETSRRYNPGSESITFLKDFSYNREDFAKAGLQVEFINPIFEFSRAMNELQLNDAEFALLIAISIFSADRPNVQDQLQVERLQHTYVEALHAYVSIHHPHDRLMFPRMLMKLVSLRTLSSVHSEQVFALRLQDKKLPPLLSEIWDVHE
Method: The ligand binding domain (LBD) of LXRα (amino acids 164 to 447) or LXRβ (amino acids 154 to 461) was cloned into pBIND [Renilla/Amp] vector (Promega). Selection and amplification were performed in E-coli cells. Purification of the plasmids was performed with a plasmid purification kit (Qiagen). For transfection HEK-293 cells were plated in 96-well plates (TPP) at a density of 3.5 x 10^4 cells/well for 24 h. To investigate the ligand binding on LXRα ligand binding domain, 0.04 ng of renilla luciferase coding plasmide pGL4.75 (Promega), 0.04 ng of LXRα-LBD/GAL4-DBD plasmide and 80 ng of firefly luciferase coding plasmide pGL4.31 (Promega) were used in a total volume of 200 µL for each well. In LXRβ binding assay 40 ng of LXRβ-LBD/GAL4-DBD plasmide were applied in each transfection mix. Transfection was carried out for 4 h with Lipofectamine 2000 Transfection Reagent (Invitrogen) in Opti-MEM medium (Invitrogen). Ligand treatment was performed at different concentrations for 24 h. For lysis and detection dual-luciferase reporter gene assay system (Promega) and POLARstar Omega (BMG LABTECH) were used.

SIRT1 = target: T2, SIRT1 (Homo sapiens, UniProt Q96EB6); test: MALDI-TOF MS deacetylation assay; format: biochemical
T2 construct: purchased Biomol International, Inc. / Enzo Life Sciences / BlueSky BioTech
T2 sequence (Q96EB6 1-747): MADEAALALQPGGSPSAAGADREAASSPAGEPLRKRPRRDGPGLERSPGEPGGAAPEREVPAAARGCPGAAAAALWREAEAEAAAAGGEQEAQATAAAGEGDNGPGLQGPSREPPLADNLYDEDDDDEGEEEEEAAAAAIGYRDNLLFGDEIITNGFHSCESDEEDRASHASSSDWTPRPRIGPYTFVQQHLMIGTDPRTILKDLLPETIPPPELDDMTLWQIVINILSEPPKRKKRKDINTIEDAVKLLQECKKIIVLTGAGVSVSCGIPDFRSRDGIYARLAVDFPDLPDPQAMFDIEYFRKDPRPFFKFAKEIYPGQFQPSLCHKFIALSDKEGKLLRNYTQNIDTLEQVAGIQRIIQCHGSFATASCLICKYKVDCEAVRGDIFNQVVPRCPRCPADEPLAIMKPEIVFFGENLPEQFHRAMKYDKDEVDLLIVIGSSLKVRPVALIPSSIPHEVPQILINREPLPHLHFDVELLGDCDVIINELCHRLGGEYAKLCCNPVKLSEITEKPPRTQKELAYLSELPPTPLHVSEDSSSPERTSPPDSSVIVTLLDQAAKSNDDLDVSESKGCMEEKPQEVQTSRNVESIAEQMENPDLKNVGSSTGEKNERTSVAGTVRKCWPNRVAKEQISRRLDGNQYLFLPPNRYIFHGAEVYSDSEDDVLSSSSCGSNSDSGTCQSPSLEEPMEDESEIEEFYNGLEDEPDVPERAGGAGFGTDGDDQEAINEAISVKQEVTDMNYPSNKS
Method: The assay was performed in a 20 µL reaction. 0.5 µM acetylated peptide and 120 µM NAD^+ in reaction buffer (50 mM Tris-acetate (pH 8), 137 mM NaCl, 2.7 mM KCI, 1 mM MgCl2, 5 mM DTT, 0.05 % BSA) were mixed with compound or DMSO (VC). Reactions were initiated by adding 10 nM of SIRT1. After incubation for 30 min at 37°C, reactions were stopped by formic acid and nicotinamide (f.c. 1% and 5 mM, respectively). Reactions were performed with histone H4 peptide and 1% DMSO unless stated otherwise. […]
(§1) Acetylated and deacetylated peptides were mixed at different ratios in the respective buffer including stop solution and reaction components except the enzyme. Purification, preparation and MS detection were conducted in parallel to reaction samples. CCs were generated for IC50 value determination but not for the screening.
(§2) Peptides were purified by Oasis HLB µElution Plates using a vacuum manifold [S. Sauer et al. J Chromatogr A (2004), 1049, 9-16]. Plate columns were conditioned by 70% ACN and equilibrated with 0.1% TFA. Samples were loaded, desalted by 0.1 % TFA and H2O and eluted in 70% ACN.
(§3) For ultra thin layer (UTL), supernatant of saturated CHCA in ACN / H2O (2:1) and 0.1% TFA. was mixed with isopropanol (1:3) and was spread on a ground steel target. After solvent evaporated excess of CHCA was removed from target surface with a tissue [D. Fenyo et al. J Vis Exp (2007), 192]. The matrix used for sample preparation contained saturated CHCA in ACN / 0.1% TFA (1:2) or ACN / H2O (1:2) depending on peptide size [S. L. Cohen et al. Anal Chem (1996), 68, 31-37]. HLB eluted samples and matrix were mixed (1:4) and spotted on the UTL.
(§4) Samples were measured automatically (AutoXecute software, Bruker Daltonik GmbH) using an ultraflex II MALDI-TOF mass spectrometer (Bruker Daltonik GmbH) in positive ion reflector mode. Laser power and detector gain were adjusted prior to every automatic run, which were performed in random walk movement.
(§5) For assay optimization and IC50 determination, 1000 shots were accumulated in 100 satisfactory shot steps (fuzzy control). At least one peak within a defined mass range had to fulfill the following criteria for the spectra to be accumulated: Absolute (min.) intensity: 800; S/N: 15; peak width: 0.2.
(§6) A script (Bruker Daltonik GmbH) was employed to analyze peptide peaks in a batch process (flexAnalysis software, Version 3.0, Bruker Daltonik GmbH). Percentage of de-/acetylation were calculated using the sum of the first four monoisotopic peak intensities. CC was generated by plotting experimental vs. calculated peptide acetylation. Measured sample values were interpolated with CC to determine de-/acetylation values (GraphPad Prism). When no CC was created, peak intensity ratios were generated. Verified single NP screening hits had to pass a peak ratio of ≤ 0.1 (deac/ac).
(§7) As IC50 values were not gained at initial velocity conditions, values were corrected by a conversion factor according to Wu et al. (Table 5) [G. Wu et al. J Biomol Screen (2003), 8, 694-700].

p300 [2] = target: T3, p300 (Homo sapiens, UniProt Q09472); conditions: literature (Balasubramanyam et al.); cited from earlier work
T3 construct: purchased Biomol International, Inc. / Enzo Life Sciences
T3 sequence (Q09472 whole entry, species assumed): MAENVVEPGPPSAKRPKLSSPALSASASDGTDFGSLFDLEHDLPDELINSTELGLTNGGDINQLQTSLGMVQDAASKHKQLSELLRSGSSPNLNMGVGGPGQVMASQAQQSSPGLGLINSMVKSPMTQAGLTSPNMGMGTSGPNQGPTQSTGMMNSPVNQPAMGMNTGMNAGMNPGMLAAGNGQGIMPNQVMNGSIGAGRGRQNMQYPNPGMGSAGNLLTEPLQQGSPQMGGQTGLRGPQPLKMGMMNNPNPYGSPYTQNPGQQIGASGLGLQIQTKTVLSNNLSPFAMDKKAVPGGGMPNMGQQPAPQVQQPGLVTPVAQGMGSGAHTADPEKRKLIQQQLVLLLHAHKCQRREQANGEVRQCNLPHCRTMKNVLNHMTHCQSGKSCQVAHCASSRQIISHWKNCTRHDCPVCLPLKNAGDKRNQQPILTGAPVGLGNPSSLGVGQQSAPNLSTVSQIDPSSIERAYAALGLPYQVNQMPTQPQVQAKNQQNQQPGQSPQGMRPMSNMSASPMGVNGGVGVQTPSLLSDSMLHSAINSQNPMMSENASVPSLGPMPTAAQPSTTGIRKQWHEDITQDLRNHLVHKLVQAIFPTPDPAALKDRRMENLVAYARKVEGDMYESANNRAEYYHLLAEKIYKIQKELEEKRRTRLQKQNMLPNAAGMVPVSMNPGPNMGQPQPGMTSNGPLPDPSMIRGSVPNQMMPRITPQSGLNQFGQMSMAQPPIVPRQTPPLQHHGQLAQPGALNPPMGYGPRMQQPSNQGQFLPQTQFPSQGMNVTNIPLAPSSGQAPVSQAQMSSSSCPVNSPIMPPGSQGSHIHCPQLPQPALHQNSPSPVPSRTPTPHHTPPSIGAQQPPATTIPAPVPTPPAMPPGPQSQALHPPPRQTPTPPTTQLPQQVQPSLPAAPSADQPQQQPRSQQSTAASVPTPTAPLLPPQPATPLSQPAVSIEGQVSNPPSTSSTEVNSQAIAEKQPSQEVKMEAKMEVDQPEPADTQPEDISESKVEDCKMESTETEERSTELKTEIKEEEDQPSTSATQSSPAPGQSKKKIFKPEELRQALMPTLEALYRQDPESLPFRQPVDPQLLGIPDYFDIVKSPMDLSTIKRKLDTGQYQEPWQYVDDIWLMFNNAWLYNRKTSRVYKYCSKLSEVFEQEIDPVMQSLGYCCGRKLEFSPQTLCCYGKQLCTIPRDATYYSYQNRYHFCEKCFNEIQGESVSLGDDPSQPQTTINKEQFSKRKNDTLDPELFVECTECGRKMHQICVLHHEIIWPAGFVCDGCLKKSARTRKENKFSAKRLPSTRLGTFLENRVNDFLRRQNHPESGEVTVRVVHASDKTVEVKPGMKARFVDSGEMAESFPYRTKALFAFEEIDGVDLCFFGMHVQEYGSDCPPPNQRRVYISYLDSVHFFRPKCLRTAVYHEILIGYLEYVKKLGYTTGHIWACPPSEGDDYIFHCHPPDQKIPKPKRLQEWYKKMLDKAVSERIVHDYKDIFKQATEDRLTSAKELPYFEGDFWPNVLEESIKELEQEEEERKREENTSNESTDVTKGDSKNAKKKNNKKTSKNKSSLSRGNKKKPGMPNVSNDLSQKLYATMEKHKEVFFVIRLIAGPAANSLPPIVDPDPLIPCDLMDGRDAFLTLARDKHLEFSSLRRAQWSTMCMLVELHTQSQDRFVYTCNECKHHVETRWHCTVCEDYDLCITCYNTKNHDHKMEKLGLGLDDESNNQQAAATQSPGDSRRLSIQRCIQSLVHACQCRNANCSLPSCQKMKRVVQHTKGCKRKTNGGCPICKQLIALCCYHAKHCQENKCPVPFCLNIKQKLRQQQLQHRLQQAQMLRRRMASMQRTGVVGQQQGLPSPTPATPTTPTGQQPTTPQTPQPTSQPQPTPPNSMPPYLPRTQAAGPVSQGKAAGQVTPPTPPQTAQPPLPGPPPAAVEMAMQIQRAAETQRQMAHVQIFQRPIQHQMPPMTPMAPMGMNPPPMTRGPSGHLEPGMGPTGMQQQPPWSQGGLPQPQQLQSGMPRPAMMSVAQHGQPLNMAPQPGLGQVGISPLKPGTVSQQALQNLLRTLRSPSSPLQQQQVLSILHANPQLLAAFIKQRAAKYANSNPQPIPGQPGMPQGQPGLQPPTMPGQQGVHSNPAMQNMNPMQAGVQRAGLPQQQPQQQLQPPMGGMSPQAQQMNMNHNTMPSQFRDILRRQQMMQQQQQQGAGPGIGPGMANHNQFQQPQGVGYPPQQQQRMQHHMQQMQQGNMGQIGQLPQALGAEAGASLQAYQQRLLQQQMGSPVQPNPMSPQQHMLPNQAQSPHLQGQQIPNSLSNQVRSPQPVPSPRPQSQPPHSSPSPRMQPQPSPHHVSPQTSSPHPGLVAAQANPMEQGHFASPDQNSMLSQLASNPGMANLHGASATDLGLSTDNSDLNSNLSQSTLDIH

p300 [3] = target: T3, p300; test: MALDI-TOF MS acetylation assay; format: biochemical
Method: Reactions were started by adding 0.5 µM HAT peptide and 120 µM AcCoA and incubated for 60 min at 30°C. After incubation at 30°C for up to 60 min, reactions were stopped by formic acid (f.c. 2%). Reaction buffer consisted of 50 mM HEPES (pH 7.9), 0.1 mM EDTA and 50 µg/mL BSA.
as §1, §2, §3, §4, §5, §6, §7

p300 [4] = target: T3, p300; test: radioactivity based assay (Reaction Biology Corp.); format: biochemical
Excerpt: IC50 for NP 9 was also validated by a radioactivity based assay, and performed by Reaction Biology Corp. (RBC).

THP-1 cells = test: TNFalpha ELISA in LPS-treated THP-1 cells; format: cell-based, human; conditions: 10 µM, LPS for 5 hours
Method: THP-1 cells were seeded in a 24-well plate (1.2 x 10^6 cells/well) in a volume of 0.4 mL. Cells were treated with 10 µM NP 9 or DMSO (VC). After 1 h, 10 ng/mL LPS (Sigma, cat.no. L5293) were added and incubated for another 5 h. Medium was separated from the cells by centrifugation and used for detection of TNFalpha release by a human TNF alpha ELISA Kit [V. M. Nayagam et al. J Biomol Screen (2006), 11, 959-967].

[5] = Table 3, corrected values (see Table 5), read-out: IC50 values
[6] = corrected by conversion factor according to Wu et al., read-out: Corrected IC50
[7] = uncorrected, not at initial velocity conditions, read-out: Obtained IC50'

IC50 (SIRT1; [5]) [µM]	IC50 (SIRT1; [6]) [µM]	IC50 (SIRT1; [7]) [µM]	Structure (SMILES)	other results
			CC(C)CC[C@@H](O)[C@@H](C)[C@H]1CC[C@H]2[C@@H]3CC=C4C[C@@H](O)CC[C@]4(C)[C@H]3CC[C@]12C [22R, 22(R)-hydroxycholesterol]	EC50 ([1]; LXRα reporter gene activation): 13.3 µM; Efficacy ([1]; reporter gene transcription vs. T09): 4%
46 ± 4	46 ± 4	63 ± 5	O=C1CC(c2ccccc2)Oc2c(Cc3cccc(O)c3O)c(O)c(Cc3cccc(O)c3O)c(O)c21 (stereo not shown) [NP 4, 6,8-bis(2,3-dihydroxybenzyl)-5,7-dihydroxy-2-phenylchroman-4-one]	
28 ± 9	28 ± 9	39 ± 13	COc1c(-c2c(O)cc(O)c3c(=O)cc(-c4ccc(O)cc4)oc23)c(O)cc2oc(-c3ccc(O)cc3)cc(=O)c12 [NP 2, 5',7,7'-trihydroxy-2,2'-bis(4-hydroxyphenyl)-5-methoxy-6,8'-bi(4H-chromene)-4,4'-dione]	
			CCCCCCCCCCCCCCCc1cccc(O)c1C(=O)O [anacardic acid]	IC50 (p300 [2]): 8.5 µM
			CC(C)=CCc1c(O)cc(O)c2c(=O)c(O)c(-c3ccc(O)c(O)c3)oc12 [NP 9, 2-(3,4-dihydroxyphenyl)-3,5,7-trihydroxy-8-(3-methylbut-2-enyl)-4H-chromen-4-one]	IC50 (p300 [3]; MALDI MS assay, read-out: IC50 value): 1.71 µM; IC50 (p300 [3]; [6]): 1.71 ± 0.07 µM; times stronger than anacardic acid (p300 [3]; p300 IC50 comparison): about 4 times; times stronger than garcinol (p300 [3]; p300 IC50 comparison): about 3.5 times; IC50 (p300 [3]; [7]): 2.35 ± 0.09 µM; IC50 (p300 [4]): 2.1 µM; levels of TNFα secreted (THP-1 cells): significant anti-inflammatory effects by reducing the levels of TNFα
36 ± 6	36 ± 6	50 ± 8	O=c1cc(-c2ccc(O)c(-c3c(O)cc(O)c4c(=O)cc(-c5ccc(O)cc5)oc34)c2)oc2cc(O)cc(O)c12 [NP 3, 8-(5-(5,7-dihydroxy-4-oxo-4H-chromen-2-yl)-2-hydroxyphenyl)-5,7-dihydroxy-2-(4-hydroxyphenyl)-4H-chromen-4-one]	
49 ± 3	49 ± 3	68 ± 4	COC1C(OC(N)=O)C(O)C(Oc2ccc(-c3coc4cc(O)cc(O)c4c3=O)cc2)OC1(C)C (stereo not shown) [NP 5, 6-(4-(5,7-dihydroxy-4-oxo-4H-chromen-3-yl)phenoxy)-5-hydroxy-3-methoxy-2,2-dimethyl-tetrahydro-2H-pyran-4-yl carbamate]	
